Experimental data reported in patent US20050282818A1, “Ubiquitin ligase inhibitors” (Rigel Pharmaceuticals, Inc., priority 2004, published 2005).
pIC50: −log10 of the molar value. Read-outs that look alike come from different tables or passages of the source.

How the values were obtained:
[1] = test system: HCT116 cells; test: Cell proliferation PAD assay, HCT116; type: cell-based; settings: Homo sapiens, 48 hours
Excerpt: (§1) Table 3 illustrates the inhibitory activity of the compounds of the invention determined by the PAD assay described above in a number of cell types. Apoptosis was not
(§2) Cell lines used are available from American Type Culture Collection (ATCC), for example, cell cultures containing A549 (ATCC# CCL-185), HeLa (ATCC# CCL-2), HCT116 ATTC# CCL-247), and H1299 (ATCC# CRL-5803) cells were maintained in T175 flasks following the ATCC recommended media and handling procedures. […] A 20,000 cells/ml solution was made for plating. Cells were plated in black Packard 96 well plates by placing 100 μl per well (2,000 cells per well). […] The definitions of the cell types used are as follows: A549 is lung carcinoma; HI 299 is non-small cell lung carcinoma; HI 155 is non-small cell lung carcinoma; AsPC-1 is pancreatic adenocarcinoma; Caov-3 is ovarian adenocarcinoma; COLO 205 is colorectal adenocarcinoma; DLD-1 colorectal adenocarcinoma; HCT116 is colorectal carcinoma; DU 145 is prostate carcinoma; ES-2 is ovarian clear cell carcinoma; H460 is large cell lung carcinoma; HELA is cervical adenocarcinoma; MIA PaCa-2 is pancreatice carcinoma; OVCAR-3 is ovarian adenocarcinoma; OVCAR8 is ovarian carcinoma; PC3 is prostate adenocarcinoma; SK-OV-3 is ovarian adenocarcinoma; SU86.86 is pancreatic carcinoma; TOV-21G is avarian clear cell carcinoma; U2OS is bone osteosarcoma; is ASPC-I is pancreatic adenocarcinoma; BXPC-3 is pabcreatic adenocarcinoma; HL60 is promyeloblast promyelocytic leukemia; K562 is bone marrow chronic myelogenous leukemia; L1210 is mouse lymphocytic leukemia; MOLT3 is T lymphoblast acute lymphoblastic leukemia; MOLT4 is T lymphoblast acute lymphoblastic leukemia; SW620 is colorectal adenocarcinoma; THP-1 is monocyte acute monocytic leukemia; U937 is histiocytic lymphoma; and UACC-257 is melanoma.
(§3) Compounds and additional media were added 24 hours after cell plating. A compound master plate was created with concentrations 500 times greater than the final concentration added to the cells. All compound testing was done in duplicate using 6.3 fold dilutions starting with 10 mM. All outside wells (and 4 internal wells) were DMSO controls. Taxol and at least one additional control were run on all plates. Three microliters of the compound master plate were added to deep well blocks containing 750 μl of RPMI media. One hundred microliters were transferred from the compound/media deep well blocks to the plated cells resulting in a 500 fold dilution of the compounds. Cells were grown at 37° C., 5% CO2 for 48 hours.
(§4) Cells to be analyzed by photography were fixed and stained. One hundred microliters of media were removed and 100 μl of 9.3% formamide was added to each well. Plates were left on the benchtop for 45 minutes. A staining solution containing 1.55 μl of 1 mg/ml DAPI added to 18.75 ml PBS was warmed for 15 minutes at 37° C. The cells were aspirated prior to washing with 100 μl of PBS. Seventy microliters of PBS were aspirated and 170 μl of the DAPI solution were added to each well of fixed cells. Plates were left at room temperature for one hour then aspirated and washed twice with 100 μl of PBS. The stained cells were left at 4° C. for a minimum of 16 hours before photographic analysis with Array Scan II (Cellomics). Analysis of the photographic images to determine numbers of live cells (proliferation), apoptotic cells and dead cells, were according to the methods described in U.S. Utility patent application Ser. No. 10/652,440, which incorporated herein in its entirety.

[2] = test system: HELA cells; test: Cell proliferation PAD assay, HeLa; type: cell-based; settings: Homo sapiens, 6pt, 48 hours
Excerpt: as §1, §2, §3, §4

[3] = test system: U2OS cells; test: Cell proliferation PAD assay, U2OS; type: cell-based; settings: Homo sapiens, 6pt, 48 hours
Excerpt: as §1, §2, §3, §4

[4] = molecular target: T1, ROC1/CUL1 (Homo sapiens, UniProt P62877+Q13616); test: ROC1/CUL1 ubiquitin ligase assay (SCF assay); type: biochemical
T1 construct: made in house
T1 sequence (P62877 whole entry): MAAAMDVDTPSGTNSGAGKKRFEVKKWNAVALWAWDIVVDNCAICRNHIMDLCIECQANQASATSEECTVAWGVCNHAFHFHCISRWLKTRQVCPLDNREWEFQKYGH
T1 sequence (Q13616 whole entry): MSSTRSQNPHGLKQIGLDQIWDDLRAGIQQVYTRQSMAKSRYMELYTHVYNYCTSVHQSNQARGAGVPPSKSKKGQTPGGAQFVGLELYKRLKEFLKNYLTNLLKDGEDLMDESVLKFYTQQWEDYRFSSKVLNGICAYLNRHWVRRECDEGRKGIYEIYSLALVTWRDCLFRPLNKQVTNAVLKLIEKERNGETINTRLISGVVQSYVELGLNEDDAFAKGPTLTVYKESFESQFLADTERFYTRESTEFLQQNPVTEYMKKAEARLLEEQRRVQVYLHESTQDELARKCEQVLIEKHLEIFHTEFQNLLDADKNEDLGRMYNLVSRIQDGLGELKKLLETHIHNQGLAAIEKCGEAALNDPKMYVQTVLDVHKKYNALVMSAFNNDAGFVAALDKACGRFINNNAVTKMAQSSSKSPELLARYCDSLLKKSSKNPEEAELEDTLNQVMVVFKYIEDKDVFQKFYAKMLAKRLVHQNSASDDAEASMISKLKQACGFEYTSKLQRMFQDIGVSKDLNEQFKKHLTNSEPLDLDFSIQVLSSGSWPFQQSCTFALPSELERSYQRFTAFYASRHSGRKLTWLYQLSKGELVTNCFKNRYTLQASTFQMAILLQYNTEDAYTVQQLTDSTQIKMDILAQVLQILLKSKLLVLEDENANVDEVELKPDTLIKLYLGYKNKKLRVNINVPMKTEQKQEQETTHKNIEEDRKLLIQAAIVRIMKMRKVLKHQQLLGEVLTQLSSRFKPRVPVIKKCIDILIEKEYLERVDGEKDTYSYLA
Summary of the method: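 His-ROC1/CUL1 (100 ng/well) with E1 (5 ng/well), UbcH5c E2 (25 nl/well) and Flag-ubiquitin (100 ng) on nickel-coated plates; the reaction solution held Tris pH 7.5, MgCl2, DTT and 2.5 mM ATP. Compounds were added and the reaction ran 1 h at RT. Bound ubiquitin was read by anti-Flag/HRP luminescence, giving IC50 across compound concentrations.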

[5] = HCT-116, 6pt, read-out: HCT116 6pt

Compound	pIC50 [1, 5]	pIC50 [2]	pIC50 [3]	pIC50 [4]	pIC50 ([1]; HCT-116, 9pt, read-out: HCT116 9pt)
Cc1cccc(N2CCN(S(=O)(=O)c3c(Cl)ccc4nonc34)CC2)n1 [compound 202, 5-chloro-4-{[4-(6-methylpyridin-2-yl)piperazin-1-yl]sulfonyl}-2,1,3-benzoxadiazole]	> 6.00	4.70 to 6.00	> 6.00	–	–
O=S(=O)(Nc1ccc2cn[nH]c2c1)c1ccc(Cl)c2nonc12 [compound 220, 7-chloro-N-1 H-indazol-6-yl-2,1,3-benzoxadiazole-4-sulfonamide]	4.70 to 6.00	4.70 to 6.00	4.70 to 6.00	–	–
CC1(C)CCN(S(=O)(=O)c2c(Cl)ccc3nonc23)CC1 [compound 245, 5-chloro-4-[(4,4-dimethylpiperidin-1-yl)sulfonyl]-2,1,3-benzoxadiazole]	–	≤ 4.70	–	≤ 4.70	> 6.00
Cc1cc(C)cc(-c2ccc([N+](=O)[O-])c3nonc23)c1 [compound 286, 4-(3,5-Dimethylphenyl)-7-nitro-2,1,3-benzoxadiazole]	> 6.00	4.70 to 6.00	> 6.00	–	–

Continued, values first:

pIC50 [1, 5]	pIC50 [2]	pIC50 [3]	pIC50 [4]	pIC50 ([1]; HCT-116, 9pt, read-out: HCT116 9pt)	Compound
> 6.00	> 6.00	> 6.00	–	–	O=[N+]([O-])c1ccc(SCCO)c2nonc12 [compound 150, 2-[(7-nitro-2,1,3-benzoxadiazol-4-yl)thio]ethanol]
> 6.00	> 6.00	> 6.00	–	–	COC(=O)c1ccc(NS(=O)(=O)c2c(Cl)ccc3nonc23)cc1 [compound 178, methyl 4-{[(5-chloro-2,1,3-benzoxadiazol-4-yl)sulfonyl]amino}benzoate]
4.70 to 6.00	4.70 to 6.00	> 6.00	–	–	O=S(=O)(c1c(Cl)ccc2nonc12)N1CCN(c2ncc(C(F)(F)F)cc2Cl)CC1 [compound 179, 5-chloro-4-({4-[3-chloro-5-(trifluoromethyl)pyridin-2-yl]piperazin-1-yl}sulfonyl)-2,1,3-benzoxadiazole]
–	–	> 6.00	–	–	O=c1[nH]c2ccccc2n1C1CCN(S(=O)(=O)c2ccc(Cl)c3nonc23)CC1 [compound 188, 1-{1-[(7-chloro-2,1,3-benzoxadiazol-4-yl)sulfonyl]piperidin-4-yl}-1,3-dihydro-2H-benzimidazol-2-one]
–	–	> 6.00	–	–	CC(=O)N1CCN(S(=O)(=O)c2c(Cl)ccc3nonc23)CC1 [compound 201, 4-[(4-acetylpiperazin-1-yl)sulfonyl]-5-chloro-2,1,3-benzoxadiazole]
